Data reported in patent publication US6969600B2, “Carbonyl reductase, method for producing said enzyme, DNA encoding said enzyme, and method for producing alcohol using said enzyme” (Daicel Chemical Industries, Ltd., priority 1998, dated 2005).

Tests used:
carbonyl reductase [1] = assay: Substrate specificity: reductase activity with various ketones and aldehydes in the presence of a coenzyme; assay type: biochemical, Kluyveromyces aestuarii; set-up: concentration or dose not given beside the values; settings: reduction reaction, ethyl 4-chloroacetoacetate with NADH taken as 100
Description: (§1) A decrease of absorbance at 340 nm, following a decrease of NADH, is measured during the reaction at 30 in a reaction mixture containing 50 mM potassium phosphate buffer (pH 6.5), 0.2 mM NADH, 20 mM ethyl 4-chloroacetoacetate, and the enzyme. One unit of the enzyme of the present invention is defined as the amount required to decrease […] of NADH in 1 min. A protein is quantitated by the dye-binding method using a Protein Assay Kit (BioRad).
(§2) The reductase activity of the enzyme obtained in Example 1 was measured by reacting the enzyme with various ketones and aldehydes in the presence of a coenzyme. The results are shown in Table 2 as the activity relative to that of ethyl 4-chloroacetoacetate in the presence of NADH that is taken as 100.

carbonyl reductase [2] = assay: Influence of inhibitors on the carbonyl reductase (residual reductase activity); assay type: biochemical, Kluyveromyces aestuarii; settings: for Residual activity: 30, 10 min, activity without any reagent taken as 100
Description: as §1
The enzyme obtained in Example 1 was incubated at 30 for 10 min in the presence of various reagents, and its reductase activity to […] was measured. The results are shown in Table 3 as the residual activity to that obtained without any reagent that is taken as 100.

carbonyl reductase [3] = assay: Substrate specificity: NAD+-dependent dehydrogenase (oxidation) activity; assay type: biochemical, Kluyveromyces aestuarii; set-up: Relative activity (%): concentration or dose not given beside the values; settings: for Relative activity (%): oxidation reaction, coenzyme NAD+, reduction of ethyl 4-chloroacetoacetate with NADH taken as 100; for NAD+-dependent dehydrogenase activity (in words): substrate with NAD+
Description: The enzyme contacts the substrate, 4-halo-3-hydroxybutyrate ester, in the presence of NAD^+, and the change (per unit time) of the absorbance at 340 nm, which is accompanied with an increase or decrease of NADH, is measured.
as §2

[4] = assay type: physicochemical, Kluyveromyces aestuarii
Description: The enzyme obtained in Example 1 was incubated at pH 8.0 for 10 min at 30, 37, 45, 50, and 55; the reductase activity of each incubation mixture to ethyl 4-chloroacetoacetate was then measured. The results are shown in FIG. 5 as the residual activity to the activity of the untreated enzyme that is taken as 100.

[5] = 4-chloroacetoacetate ester-reducing activity of the purified enzyme; assay type: biochemical, Kluyveromyces aestuarii; settings: 20 mM ethyl 4-chloroacetoacetate, 0.2 mM NADH, pH 6.5; after Superdex 200
Description: as §1
Kluyveromyces aestuarii IFO 10597 was cultured in 20 L of YM medium containing 24 g/L glucose, 3 g/L yeast extract, 3 g/L malt extract, and 5 g/L peptone (pH 6.0). The cultured cells were harvested by centrifugation. […]
The activity of the carbonyl reductase was detected in three fractions, a passed-through fraction and two gradient-eluted fractions. […]
The concentrated enzyme solution was adjusted to 20% saturation with ammonium sulfate and was applied to a butyl-Toyopearl 650M column (1.6 cm×5 cm) equilibrated with the standard buffer containing 20% saturation ammonium sulfate. […] The peak of the activity of the carbonyl reductase was detected in two eluted fractions. […]
The active fractions obtained by gel filtration were concentrated and analyzed by polyacrylamide gel electrophoresis (PAGE). The enzyme was detected as a substantially single band (FIG. 1). […]

Molecule: CCOC(=O)CC(C)=O [ethyl acetoacetate]
- Relative activity (%) (carbonyl reductase [1]; coenzyme NADH): 0%

Molecule: CCC1(CC)C(=O)NC(=O)NC1=O [barbital]
- Inhibition of the carbonyl reductase (in words) (carbonyl reductase [2]): not and not inhibited
- Residual activity (carbonyl reductase [2]; inhibitor 1 mM): 101

Molecule: O=C(O)c1cc[c]([Hg][Cl])cc1 [p-chloromercuribenzoic acid]
- Inhibition of the carbonyl reductase (in words) (carbonyl reductase [2]): significantly inhibited
- Residual activity (carbonyl reductase [2]; inhibitor 0.05 mM): 0

Molecule: CCOC(=O)C[C@@H](C)O [ethyl (R)-3-hydroxybutyrate]
- Relative activity (%) (carbonyl reductase [3]): 1.9%

Molecule: CCOC(=O)C[C@H](O)CCl [ethyl (S)-4-chloro-3-hydroxybutyrate]
- Relative activity (%) (carbonyl reductase [3]): 0%
- NAD+-dependent dehydrogenase activity (in words) (carbonyl reductase [3]): did not show any

Molecule: CC(=O)CC(C)=O [2,4-pentandione]
- Relative activity (%) (carbonyl reductase [1]; coenzyme NADH): 0%

Molecule: CCOC(=O)CC(=O)CCl [ethyl 4-chloroacetoacetate]
- Relative activity (%) (carbonyl reductase [1]; coenzyme NADH): 100%
- Relative activity (%) (carbonyl reductase [1]; coenzyme NADPH): 6.4%

Molecule: CCOC(=O)C[C@@H](O)CCl [ethyl (R)-4-chloro-3-hydroxybutyrate]
- Relative activity (%) (carbonyl reductase [3]): 0%
- NAD+-dependent dehydrogenase activity (in words) (carbonyl reductase [3]): did not show any

Molecule: COC(=O)CC(C)=O [methyl acetoacetate]
- Relative activity (%) (carbonyl reductase [1]; coenzyme NADH): 0%

Molecule: O=Cc1cccnc1 [pyridin-3-aldehyde]
- Relative activity (%) (carbonyl reductase [1]; coenzyme NADH): 0%

Molecule: CCC=O [Propionaldehyde]
- Relative activity (%) (carbonyl reductase [1]; coenzyme NADH): 2.5%

Molecule: CC(=O)C(C)=O [2,3-butandione]
- Relative activity (%) (carbonyl reductase [1]; coenzyme NADH): 70.6%

Molecule: CC(=O)C=O [Methylglyoxal]
- Relative activity (%) (carbonyl reductase [1]; coenzyme NADH): 0%

Molecule: NC(=O)CI [iodoacetamide]
- Inhibition of the carbonyl reductase (in words) (carbonyl reductase [2]): weakly inhibited
- Residual activity (carbonyl reductase [2]; inhibitor 1 mM): 84.0

Molecule: O=S(=O)(F)Cc1ccccc1 [Phenylmethanesulfonyl fluoride]
- Residual activity (carbonyl reductase [2]; inhibitor 1 mM): 99.0

Molecule: O=c1c(O)c(-c2ccc(O)c(O)c2)oc2cc(O)cc(O)c12 [quercetin]
- Inhibition of the carbonyl reductase (in words) (carbonyl reductase [2]): not and not inhibited
- Residual activity (carbonyl reductase [2]; inhibitor 0.1 mM): 94.0

Molecule: CCC(=O)C(C)=O [2,3-pentandione]
- Relative activity (%) (carbonyl reductase [1]; coenzyme NADH): 8.2%

Molecule: O=S(=O)([O-])[O-].[Cu+2] [copper sulfate]
- Inhibition of the carbonyl reductase (in words) (carbonyl reductase [2]): significantly inhibited
- Residual activity (carbonyl reductase [2]; inhibitor 1 mM): 19.0

Molecule: CC(C)O [Isopropanol]
- Relative activity (%) (carbonyl reductase [3]): 0%
- NAD+-dependent dehydrogenase activity (in words) (carbonyl reductase [3]): does not substantially dehydrogenate

Molecule: CCOC(=O)C[C@H](C)O [ethyl (S)-3-hydroxybutyrate]
- Relative activity (%) (carbonyl reductase [3]): 0%

Molecule: COC(=O)CC(=O)CCl [methyl 4-chloroacetoacetate]
- Relative activity (%) (carbonyl reductase [1]; coenzyme NADH): 13.1%

Molecule: CC(=O)c1ccccc1 [Acetophenone]
- Relative activity (%) (carbonyl reductase [1]; coenzyme NADH): 0%

B1: carbonyl reductase: NADH-dependent carbonyl reductase purified from Kluyveromyces aestuarii IFO 10597; amino acid sequence SEQ ID NO: 2 (protein, listed as Kluyveromyces aestuarii)
chain: MTFQHFLRGGLEDKTVPQEPPKEQYPDGVNYLSLFSQKGKLTVITGGAGAIGGALCEGFASCGSDVVILDYKYSPELSSVLESRYGVRSKSYQVDITSSEDVKLVVAKILEDFPDRDINTFVANAGIAWTNGSILNENATPDVWKRVMDVNVQGTYHCAKYVAEVFKQQGHGNLILTASMSSYISNVPNYQTCYNASKAAVRHMAKGFAVEFAHLTNPAGKIRCNSVSPGYTDTALSAFVPVEQRAQWWGLTPMGREALPQELVGAYLYLASDAASFTNGCDIQVDGGYTCV
- Thermostability (relatively stable up to) [4]: up to 40
- Residual activity after heat incubation ([4]; pH 8.0, 10 min, up to 37, untreated enzyme taken as 100): ≥ 75%
- Specific activity of the purified enzyme [5]: about 28.6 U/mg
